Reference: ChEMBL document CHEMBL1201862, “PubChem BioAssay data set” (2004)
Values belong to the compound of their own block, whether it stands above or below them. Activity calls are given as the source filed them.

Columns and labels:
Cytochrome P450 3A4 [1] = biological target: T1, Cytochrome P450 3A4 (Homo sapiens, UniProt P08684);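 note: CYP3A4 tested as one member of a cytochrome P450 panel screen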
Cytochrome P450 2C9 = Cytochrome P450 2C9 (Homo sapiens, UniProt P11712)
Cytochrome P450 2D6 = Cytochrome P450 2D6 (Homo sapiens, UniProt P10635);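 note: CYP2D6 member of a cytochrome P450 panel assay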
Cytochrome P450 2C19 = Cytochrome P450 2C19 (Homo sapiens, UniProt P33261); assay: Cytochrome panel assay with activity outcomes. Panel member name: p450-cyp2c19 Compounds with AC50 equal or less than 10 uM are considered active; assay type: functional
[2] = CAL PDZ domain peptide-binding inhibitors, dose response, biochemical, fluorescence polarization, untagged CAL PDZ, cherry-pick, set 2 (AID 602254); assay type: functional
[3] = biological target: Dual specificity tyrosine-phosphorylation-regulated kinase 1A (Rattus norvegicus, UniProt Q63470); assay type: biochemical, Homo sapiens
[4] = biological target: Dual specificity protein kinase CLK1 (Homo sapiens, UniProt P49759); assay: CLK1 kinase inhibitors, off-target check, dose response, selectivity assay for Dyrk1A inhibitor project, biochemical, cherry-picked samples (AID 588811)
Cytochrome P450 3A4 [5] = biological target: T1, Cytochrome P450 3A4; remark: listed apart in the source
[6] = biological target: T2, High affinity choline transporter 1 (Homo sapiens, UniProt Q9GZV3); assay: CHT inhibitors, dose response, cell-based, 5-point CRC, membrane potential dye (AID 504840); assay type: functional
T2 sequence (Q9GZV3 whole entry): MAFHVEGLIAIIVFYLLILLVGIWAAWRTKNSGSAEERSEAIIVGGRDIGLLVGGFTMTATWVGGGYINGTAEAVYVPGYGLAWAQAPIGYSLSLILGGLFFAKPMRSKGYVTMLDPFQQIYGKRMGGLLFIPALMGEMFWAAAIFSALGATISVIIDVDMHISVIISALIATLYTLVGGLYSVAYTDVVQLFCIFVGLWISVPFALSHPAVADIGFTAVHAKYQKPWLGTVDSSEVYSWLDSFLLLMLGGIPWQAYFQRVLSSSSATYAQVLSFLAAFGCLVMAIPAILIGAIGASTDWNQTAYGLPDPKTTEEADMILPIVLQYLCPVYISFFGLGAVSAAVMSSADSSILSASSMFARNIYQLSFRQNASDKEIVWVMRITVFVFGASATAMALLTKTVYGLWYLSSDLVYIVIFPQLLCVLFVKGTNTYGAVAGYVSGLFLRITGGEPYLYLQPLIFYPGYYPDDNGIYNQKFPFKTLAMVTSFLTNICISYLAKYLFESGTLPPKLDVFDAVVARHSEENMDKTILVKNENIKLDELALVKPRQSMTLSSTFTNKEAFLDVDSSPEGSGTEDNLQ

[7] = biological target: T2, High affinity choline transporter 1; assay: CHT inhibitors, dose response, cell-based, 10-point CRC, membrane potential dye (AID 588401); assay type: functional;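 note: membrane potential dye fluorescence of choline-evoked depolarization via CHT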
HeLa = assay: HeLa cell cytotoxicity, dose response, cytotoxicity control for MITF activator project, CellTiter-Glo luminescence, cherry-pick samples (AID 540259); assay type: functional, cell-based; conditions: Homo sapiens
HEK293 [8] = assay: cells; conditions: Homo sapiens
HEK293 [9] = assay: cells; conditions: Homo sapiens; remark: listed apart in the source

Sequence of Cytochrome P450 2D6 (P10635 whole entry): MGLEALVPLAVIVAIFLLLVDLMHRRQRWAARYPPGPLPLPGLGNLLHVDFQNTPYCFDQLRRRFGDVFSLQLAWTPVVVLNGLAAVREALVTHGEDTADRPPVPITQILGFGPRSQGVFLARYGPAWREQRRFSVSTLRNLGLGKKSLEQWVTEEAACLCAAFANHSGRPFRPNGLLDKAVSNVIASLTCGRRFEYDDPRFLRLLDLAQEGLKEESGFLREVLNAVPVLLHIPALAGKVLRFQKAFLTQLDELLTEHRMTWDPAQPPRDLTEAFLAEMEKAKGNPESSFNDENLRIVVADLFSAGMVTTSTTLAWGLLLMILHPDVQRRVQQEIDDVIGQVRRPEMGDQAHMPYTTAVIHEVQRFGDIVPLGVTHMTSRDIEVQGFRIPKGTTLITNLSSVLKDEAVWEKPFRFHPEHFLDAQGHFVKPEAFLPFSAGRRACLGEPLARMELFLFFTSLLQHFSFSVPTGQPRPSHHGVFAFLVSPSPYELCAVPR
Sequence of Dual specificity protein kinase CLK1 (P49759 whole entry): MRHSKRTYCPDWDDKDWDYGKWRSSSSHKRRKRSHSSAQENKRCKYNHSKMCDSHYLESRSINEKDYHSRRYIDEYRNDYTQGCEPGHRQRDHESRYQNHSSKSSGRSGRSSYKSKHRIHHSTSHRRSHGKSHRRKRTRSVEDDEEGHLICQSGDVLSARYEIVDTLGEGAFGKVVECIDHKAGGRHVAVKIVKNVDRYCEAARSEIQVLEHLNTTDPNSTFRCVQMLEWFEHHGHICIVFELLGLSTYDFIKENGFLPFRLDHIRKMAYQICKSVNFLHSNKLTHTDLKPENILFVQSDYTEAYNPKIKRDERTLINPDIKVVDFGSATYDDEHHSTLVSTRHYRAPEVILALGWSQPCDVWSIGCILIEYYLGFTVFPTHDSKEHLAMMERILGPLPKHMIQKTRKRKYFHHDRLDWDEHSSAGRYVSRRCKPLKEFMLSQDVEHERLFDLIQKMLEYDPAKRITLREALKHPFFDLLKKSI
Sequence of Cytochrome P450 2C19 (P33261 whole entry, the tested form may be a part): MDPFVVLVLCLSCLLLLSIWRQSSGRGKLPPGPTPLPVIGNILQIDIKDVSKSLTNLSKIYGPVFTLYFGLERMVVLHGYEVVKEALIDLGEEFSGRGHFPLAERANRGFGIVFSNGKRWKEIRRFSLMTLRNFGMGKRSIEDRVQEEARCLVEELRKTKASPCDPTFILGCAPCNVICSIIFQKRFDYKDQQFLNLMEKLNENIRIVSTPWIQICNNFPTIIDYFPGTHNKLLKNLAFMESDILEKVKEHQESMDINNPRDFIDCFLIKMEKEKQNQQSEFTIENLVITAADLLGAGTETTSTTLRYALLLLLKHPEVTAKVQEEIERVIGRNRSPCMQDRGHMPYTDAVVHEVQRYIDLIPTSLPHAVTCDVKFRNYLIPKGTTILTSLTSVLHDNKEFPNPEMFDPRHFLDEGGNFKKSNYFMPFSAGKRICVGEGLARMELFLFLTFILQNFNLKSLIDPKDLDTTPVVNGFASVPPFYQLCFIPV
T1 sequence (P08684 whole entry): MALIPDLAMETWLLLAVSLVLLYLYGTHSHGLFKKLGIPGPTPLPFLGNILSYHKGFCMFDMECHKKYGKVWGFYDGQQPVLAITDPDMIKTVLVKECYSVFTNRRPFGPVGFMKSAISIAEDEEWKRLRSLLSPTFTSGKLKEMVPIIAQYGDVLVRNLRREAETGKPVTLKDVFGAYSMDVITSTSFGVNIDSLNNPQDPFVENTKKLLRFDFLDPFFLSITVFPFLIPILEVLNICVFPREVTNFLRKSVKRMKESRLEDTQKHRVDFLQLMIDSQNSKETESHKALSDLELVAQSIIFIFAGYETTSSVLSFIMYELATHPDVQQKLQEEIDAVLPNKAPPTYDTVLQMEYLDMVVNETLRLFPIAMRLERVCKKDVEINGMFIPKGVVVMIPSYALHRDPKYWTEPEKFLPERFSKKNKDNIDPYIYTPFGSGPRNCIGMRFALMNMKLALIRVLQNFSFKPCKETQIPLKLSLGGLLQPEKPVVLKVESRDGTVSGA
Sequence of Cytochrome P450 2C9 (P11712 whole entry): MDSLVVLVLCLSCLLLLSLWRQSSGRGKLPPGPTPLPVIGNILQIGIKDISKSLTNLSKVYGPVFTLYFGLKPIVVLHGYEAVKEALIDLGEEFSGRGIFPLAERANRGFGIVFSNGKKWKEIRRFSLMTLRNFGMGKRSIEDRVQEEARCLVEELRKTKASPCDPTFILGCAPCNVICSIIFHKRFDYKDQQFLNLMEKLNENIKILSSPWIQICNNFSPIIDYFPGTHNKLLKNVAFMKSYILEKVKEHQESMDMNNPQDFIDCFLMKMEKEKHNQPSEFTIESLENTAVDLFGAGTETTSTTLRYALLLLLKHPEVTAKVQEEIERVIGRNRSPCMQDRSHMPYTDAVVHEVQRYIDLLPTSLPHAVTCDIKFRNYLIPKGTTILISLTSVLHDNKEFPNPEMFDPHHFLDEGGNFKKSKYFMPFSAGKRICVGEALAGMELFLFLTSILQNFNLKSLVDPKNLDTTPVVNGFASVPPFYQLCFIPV

- AC50 (Cytochrome P450 3A4 [1]): 7.94 µM (inconclusive)
- AC50 (Cytochrome P450 2C9): 0.398 µM (inconclusive)
- AC50 (Cytochrome P450 2D6): inconclusive
- AC50 (Cytochrome P450 2C19; read-out: AC50): 15.8 µM (inconclusive)
SMILES: CCCCNC(=O)c1cc2nc3c(c(C(F)(F)F)n2n1)CCc1ccccc1-3

- AC50 [3]: 1.26 µM (active)
- AC50 [4]: 1.35 µM (active)
SMILES: Cc1nc(NC(=O)c2ccccc2)sc1-c1csc(N)n1

- AC50 (Cytochrome P450 2D6): inconclusive
- AC50 (Cytochrome P450 3A4 [5]): inconclusive
- AC50 (Cytochrome P450 2C19): inconclusive
SMILES: COc1cccc(NC(=O)CSc2nc3c(c(-c4ccco4)c2C#N)CCCC3)c1

Further lines, the compound ahead of its results:

SMILES: COc1cc(NC(=O)C2CCCN(S(=O)(=O)c3cccc4nsnc34)C2)cc(OC)c1 (stereo unspecified)
- AC50 [2]: 118 µM (active)

SMILES: CCn1c(SCCC(C)C)nnc1-c1c[nH]c2ccccc12
- IC50 [6]: 0.955 µM (active)
- IC50 [7]: 2.41 µM (active)

SMILES: O=c1c2ccccc2oc2c1ccc1ccccc12
- AC50 (HeLa): 32.3 µM (active)

SMILES: COc1ccccc1-c1ccc2c(c1)C(C)(Cc1ccc(F)c(Cl)c1)C(=O)N2 (stereo unspecified)
- EC50 (HEK293 [8]): > 59.6 µM (inactive)
- EC50 (HEK293 [9]): > 59.6 µM (inactive)

SMILES: COc1ccc(-c2nccc(NCc3ccc(C)cc3)n2)cc1
- AC50 [4]: 0.00697 µM (active)
